From patent US9637473B2, “Acrylamide derivatives as antimalarial agents” (priority 2013, dated 2017)
Where a name gives a salt, the structure may show the parent alone.

test system: P. Falciparum NF54; assay: Plasmodium falciparum in vitro assay ([3H]-hypoxanthine incorporation); type: cell-based; conditions: P. Falciparum NF54, erythrocytic stages in human red blood cells, 50% human serum
Summary of the method: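 Activity against the blood stages of Plasmodium falciparum growing in human red blood cells was measured by how much [3H]-hypoxanthine the parasites took up. Filters were dried, sealed in plastic foil containing 10 mL of scintillation fluid, and read on a Betaplate liquid scintillation counter. IC50 values came from sigmoidal inhibition curves fitted in Microsoft Excel.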

| Compound | IC50 |
| --- | --- |
| CN1CCC(N2CCC(N(Cc3ccc(N(C)c4ccncc4)cc3)C(=O)/C=C/c3ccc(C(F)(F)F)cc3)C(F)C2)CC1 (racemic) [Example 79, (±)-(E)-N-(trans-3-fluoro-1′-methyl-[1,4′-bipiperidin]-4-yl)-N-(4-(methyl(pyridin-4-yl)amino)benzyl)-3-(4-(trifluoromethyl)phenyl)acrylamide] | 21 nM |
| CN(c1ccncc1)c1ccc(CN(C(=O)/C=C/c2ccc(C(F)(F)F)cc2)C2C[C@@H]3CN(C4CCCC4)C[C@@H]3C2)cc1 (single isomer, unassigned) [Example 66] | 14 nM |

same assay, conditions: Plasmodium falciparum, Erythrocyte, P. Falciparum NF54, erythrocytic stages in human red blood cells, 50% human serum

| Compound | IC50 |
| --- | --- |
| CN(c1ccncc1)c1ccc(CN(C(=O)/C=C/c2ccc(C(F)(F)F)cc2)C2CCC3(CC2)CCN(C2CCCC2)CC3)cc1 [Example 67, (E)-N-(3-cyclopentyl-3-azaspiro[5.5]undecan-9-yl)-N-(4-(methyl(pyridin-4-yl)amino)benzyl)-3-(4-(trifluoromethyl)phenyl)acrylamide] | 40 nM |
| CC(C)CCN1CCC(CN(Cc2ccc(N(C)c3ccncc3)cc2)C(=O)/C=C/c2ccc(C(F)(F)F)cc2)CC1 [Example 189, (E)-N-[1-(3-Methyl-butyl)-piperidin-4-ylmethyl]-N-[4-(methyl-pyridin-4-yl-amino)-benzyl]-3-(4-trifluoromethyl-phenyl)-acrylamide] | 34 nM |
| CN(c1ccncc1)c1ccc(CN(C(=O)/C=C/c2ccc(C(F)(F)F)cc2)C2CCN(CCc3ccccc3)CC2)cc1 [Example 14, (E)-N-[4-(Methyl-pyridin-4-yl-amino)-benzyl]-N-(1-phenethyl-piperidin-4-yl)-3-(4-trifluoromethyl-phenyl)-acrylamide] | 55 nM |
| CC(C)CCN1CC[C@H](N(Cc2ccc(N(C)c3ccncc3)cc2)C(=O)/C=C/c2ccc(C(F)(F)F)cc2)[C@H](F)C1 (racemic) [Example 77, (±)-(E)-N-(cis-3-fluoro-1-isopentylpiperidin-4-yl)-N-(4-(methyl(pyridin-4-yl)amino)benzyl)-3-(4-(trifluoromethyl)phenyl)acrylamide] | 53 nM |
| CC(C)CCN1CCC2(CCC(N(Cc3ccc(N(C)c4ccncc4)cc3)C(=O)/C=C/c3ccc(C(F)(F)F)cc3)CC2)CC1 [Example 69, (E)-N-(3-isopentyl-3-azaspiro[5.5]undecan-9-yl)-N-(4-(methyl(pyridin-4-yl)amino)benzyl)-3-(4-(trifluoromethyl)phenyl)acrylamide] | 41 nM |
| Cc1cc(Nc2ccc(CN(C(=O)/C=C/c3ccc(C(F)(F)F)cc3)C3CCN(Cc4c(C)noc4C)CC3)cc2)ccn1 [Example 44, (E)-N-[1-(3,5-Dimethyl-isoxazol-4-ylmethyl)-piperidin-4-yl]-N-[4-(2-methyl-pyridin-4-ylamino)-benzyl]-3-(4-trifluoromethyl-phenyl)-acrylamide] | 64 nM |
| CN(c1ccncc1)c1ccc(CN(C(=O)/C=C/c2ccc(C(F)(F)F)cc2)C2CCN(Cc3ccc(Cl)c(Cl)c3)CC2)cc1 [Example 11, (E)-N-[1-(3,4-Dichloro-benzyl)-piperidin-4-yl]-N-[4-(methyl-pyridin-4-yl-amino)-benzyl]-3-(4-trifluoromethyl-phenyl)-acrylamide] | 84 nM |
| CN(c1ccncc1)c1ccc(CN(C(=O)/C=C/c2ccc(C(F)(F)F)cc2)C2CCN(Cc3cncn3C)CC2)cc1 [Example 19, (E)-N-[1-(3-Methyl-3H-imidazol-4-ylmethyl)-piperidin-4-yl]-N-[4-(methyl-pyridin-4-yl-amino)-benzyl]-3-(4-trifluoromethyl-phenyl)-acrylamide] | 54 nM |
| CC(C)CCN1CCC[C@@H](N(Cc2ccc(N(C)c3ccncc3)cc2)C(=O)/C=C/c2ccc(C(F)(F)F)cc2)C1 [Example 62, (R,E)-N-(1-isopentylpiperidin-3-yl)-N-(4-(methyl(pyridin-4-yl)amino)benzyl)-3-(4-(trifluoromethyl)phenyl)acrylamide] | 70 nM |
| CN1CCC(N2CCC(N(Cc3ccc(Nc4ccncc4)cc3)C(=O)/C=C/c3ccc(OC(F)(F)F)cc3)CC2)CC1 [Example 118, (E)-N-(1′-Methyl-[1,4′]bipiperidinyl-4-yl)-N-[4-(pyridin-4-ylamino)-benzyl]-3-(4-trifluoromethoxy-phenyl)-acrylamide] | 83 nM |
| CN(c1ccncc1)c1ccc(CN(C(=O)/C=C/c2ccc(C(F)(F)F)cc2)C2CCN(CC3CC3)CC2)cc1 [Example 9, (E)-N-(1-Cyclopropylmethyl-piperidin-4-yl)-N-[4-(methyl-pyridin-4-yl-amino)-benzyl]-3-(4-trifluoromethyl-phenyl)-acrylamide] | 27 nM |
| Cc1nccc(Nc2ccc(CN(C(=O)/C=C/c3ccc(C(F)(F)F)cc3)C3CCN(C4CCCC4)CC3)cn2)n1 [Example 108, (E)-N-(1-Cyclopentyl-piperidin-4-yl)-N-[6-(2-methyl-pyrimidin-4-ylamino)-pyridin-3-ylmethyl]-3-(4-trifluoromethyl-phenyl)-acrylamide] | 430 nM |
| CC(C)N1CCC(N(Cc2cccc(N(C)c3ccncc3)n2)C(=O)/C=C/c2ccc(C(F)(F)F)cc2)CC1 [Example 127, (E)-N-(1-Isopropyl-piperidin-4-yl)-N-[6-(methyl-pyridin-4-yl-amino)-pyridin-2-ylmethyl]-3-(4-trifluoromethyl-phenyl)-acrylamide formate] | 184 nM |
| Cc1ccccc1/C=C/C(=O)N(Cc1ccc(N(C)c2ccncc2)cc1)C1CCN(Cc2ccccc2)CC1 [Example 160, (E)-N-(1-Benzyl-piperidin-4-yl)-N-[4-(methyl-pyridin-4-yl-amino)-benzyl]-3-o-tolyl-acrylamide] | 167 nM |
| CN(c1ccncc1)c1ccc(CN(C(=O)/C=C/c2ccc(F)cc2)C2CCN(Cc3ccccc3)CC2)cc1 [Example 155, (E)-N-(1-Benzyl-piperidin-4-yl)-3-(4-fluoro-phenyl)-N-[4-(methyl-pyridin-4-yl-amino)-benzyl]-acrylamide] | 101 nM |
| CC(C)N1CCC(N(Cc2cccc(N(C)c3ccncc3)c2)C(=O)/C=C/c2ccc(C(F)(F)F)cc2)CC1 [Example 142, (E)-N-(1-Isopropyl-piperidin-4-yl)-N-[3-(methyl-pyridin-4-yl-amino)-benzyl]-3-(4-trifluoromethyl-phenyl)-acrylamide formate] | 27 nM |
| Cc1cc(Nc2ccc(CN(C(=O)/C=C/c3ccc(C(F)(F)F)cc3)C3CCN(Cc4cc(C)nn4C)CC3)cc2)ccn1 [Example 43, (E)-N-[1-(2,5-Dimethyl-2H-pyrazol-3-ylmethyl)-piperidin-4-yl]-N-[4-(2-methyl-pyridin-4-ylamino)-benzyl]-3-(4-trifluoromethyl-phenyl)-acrylamide] | 84 nM |

Now from value to compound:

| IC50 | Compound |
| --- | --- |
| 431 nM | O=C(/C=C/c1ccc(C(F)(F)F)cc1)N(Cc1ccc(-c2cncnc2)cc1)C1CCN(C2CCCC2)CC1 [Example 204, (E)-N-(1-Cyclopentyl-piperidin-4-yl)-N-(4-pyrimidin-5-yl-benzyl)-3-(4-trifluoromethyl-phenyl)-acrylamide] |
| 400 nM | O=C(/C=C/c1ccc(C(F)(F)F)cc1)N(Cc1ccc(-c2ncccn2)cc1)C1CCN(C2CCCC2)CC1 [Example 203, (E)-N-(1-Cyclopentyl-piperidin-4-yl)-N-(4-pyrimidin-2-yl-benzyl)-3-(4-trifluoromethyl-phenyl)-acrylamide] |
| 343 nM | CN1CCC(N(C)c2ccc(CN(C(=O)/C=C/c3ccc(OC(F)(F)F)cc3)C3CCN(Cc4ccccc4)CC3)cc2)CC1 [Example 178, (E)-N-(1-Benzyl-piperidin-4-yl)-N-{4-[methyl-(1-methyl-piperidin-4-yl)-amino]-benzyl}-3-(4-trifluoromethoxy-phenyl)-acrylamide] |
| 302 nM | Cc1cc(N(C)c2cccc(CN(C(=O)/C=C/c3ccc(C(F)(F)F)cc3)C3CCN(C(C)C)CC3)n2)ccn1 [Example 128, (E)-N-(1-Isopropyl-piperidin-4-yl)-N-{6-[methyl-(2-methyl-pyridin-4-yl)-amino]-pyridin-2-ylmethyl}-3-(4-trifluoromethyl-phenyl)-acrylamide formate] |
| 175 nM | CC(c1ccccc1)N1CCC(N(Cc2ccc(N(C)c3ccncc3)cc2)C(=O)/C=C/c2ccc(C(F)(F)F)cc2)CC1 (racemic) [Example 30, (±)-(E)-N-[4-(Methyl-pyridin-4-yl-amino)-benzyl]-N-[1-(1-phenyl-ethyl)-piperidin-4-yl]-3-(4-trifluoromethyl-phenyl)-acrylamide] |
| 143 nM | Cc1cc(Nc2ccc(CN(C(=O)/C=C/c3ccc(C(F)(F)F)cc3)C3CCN(Cc4cnc(C)n4C)CC3)cc2)ccn1 [Example 52, (E)-N-[1-(2,3-Dimethyl-3H-imidazol-4-ylmethyl)-piperidin-4-yl]-N-[4-(2-methyl-pyridin-4-ylamino)-benzyl]-3-(4-trifluoromethyl-phenyl)-acrylamide] |
| 82 nM | Cc1cc(Oc2ccc(CN(C(=O)/C=C/c3ccc(C(F)(F)F)cc3)C3CCN(C4CCCC4)CC3)cc2)cc(C)n1 [Example 208, (E)-N-(1-Cyclopentyl-piperidin-4-yl)-N-[4-(2,6-dimethyl-pyridin-4-yloxy)-benzyl]-3-(4-trifluoromethyl-phenyl)-acrylamide] |
| 36 nM | CN1CCC(N2CCC(N(Cc3ccc(N(C)c4ccncc4)cc3)C(=O)/C=C/c3ccc(OC(F)F)cc3)CC2)CC1 [Example 181, (E)-3-(4-Difluoromethoxy-phenyl)-N-(1′-methyl-[1,4′]bipiperidinyl-4-yl)-N-[4-(methyl-pyridin-4-yl-amino)-benzyl]-acrylamide] |
| 18 nM | CN1CCC(N2CCCC(N(Cc3ccc(N(C)c4ccncc4)cc3)C(=O)/C=C/c3ccc(C(F)(F)F)cc3)CC2)CC1 (racemic) [Example 57, (±)-(E)-N-(4-(methyl(pyridin-4-yl)amino)benzyl)-N-(1-(1-methylpiperidin-4-yl)azepan-4-yl)-3-(4-(trifluoromethyl)phenyl)acrylamide] |
| 12 nM | CN1CCC(N2CCC[C@H](N(Cc3ccc(N(C)c4ccncc4)cc3)C(=O)/C=C/c3ccc(C(F)(F)F)cc3)C2)CC1 [Example 55, (S,E)-N-(4-(methyl(pyridin-4-yl)amino)benzyl)-N-(1′-methyl-[1,4′-bipiperidin]-3-yl)-3-(4-(trifluoromethyl)phenyl)acrylamide] |
